Laboratory results from patent publication US20260376293A1, “METHODS FOR STUDYING GPR158 PHARMACOLOGY AND IDENTIFICATION OF ITS LIGANDS” (UNIVERSITY OF FLORIDA RESEARCH FOUNDATION, INCORPORATED, priority 2022, published 2026).

Target: T1, GPR158 (Homo sapiens, UniProt Q5T848)
T1 sequence (Q5T848 24-1215): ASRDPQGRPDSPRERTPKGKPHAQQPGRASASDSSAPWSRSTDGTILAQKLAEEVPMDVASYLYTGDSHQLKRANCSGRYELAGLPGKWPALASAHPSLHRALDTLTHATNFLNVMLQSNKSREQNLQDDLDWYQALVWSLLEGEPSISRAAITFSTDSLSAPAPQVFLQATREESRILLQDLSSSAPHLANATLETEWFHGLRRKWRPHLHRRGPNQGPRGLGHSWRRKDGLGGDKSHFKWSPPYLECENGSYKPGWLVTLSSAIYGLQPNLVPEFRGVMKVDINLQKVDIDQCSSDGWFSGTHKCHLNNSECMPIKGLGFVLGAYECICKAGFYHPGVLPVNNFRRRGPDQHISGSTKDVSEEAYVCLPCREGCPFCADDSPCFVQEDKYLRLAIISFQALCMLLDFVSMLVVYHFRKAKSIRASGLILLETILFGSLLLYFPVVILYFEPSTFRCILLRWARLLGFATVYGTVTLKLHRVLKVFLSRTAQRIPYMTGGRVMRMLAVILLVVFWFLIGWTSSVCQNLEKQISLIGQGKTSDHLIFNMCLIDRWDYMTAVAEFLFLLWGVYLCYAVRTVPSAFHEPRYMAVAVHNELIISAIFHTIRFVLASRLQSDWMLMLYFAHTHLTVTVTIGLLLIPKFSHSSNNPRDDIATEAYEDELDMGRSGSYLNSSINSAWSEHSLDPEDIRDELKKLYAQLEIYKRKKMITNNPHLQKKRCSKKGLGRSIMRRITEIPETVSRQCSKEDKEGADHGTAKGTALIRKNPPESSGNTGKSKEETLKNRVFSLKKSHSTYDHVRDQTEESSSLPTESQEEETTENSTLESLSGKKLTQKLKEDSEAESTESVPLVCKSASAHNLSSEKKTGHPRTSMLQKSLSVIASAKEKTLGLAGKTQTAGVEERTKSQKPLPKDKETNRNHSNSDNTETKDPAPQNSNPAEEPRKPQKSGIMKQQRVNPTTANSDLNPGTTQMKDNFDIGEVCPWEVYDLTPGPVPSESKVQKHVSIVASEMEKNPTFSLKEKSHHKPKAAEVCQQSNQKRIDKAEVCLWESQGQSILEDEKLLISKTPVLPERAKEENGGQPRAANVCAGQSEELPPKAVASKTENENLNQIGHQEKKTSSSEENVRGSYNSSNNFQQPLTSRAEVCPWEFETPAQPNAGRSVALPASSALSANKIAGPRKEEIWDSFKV
Test: BRET G protein activation assay
Type: cell-based
Parameters: expressed in transfected cells; host or cells: HEK293FT
Settings: panel of Gα subunits; 0.1 mM; HEK293 cells
Procedure: FIGS. 5A-5I. Lack of the effects of glycine or taurine on GPR158 coupling to G proteins. A) Schematic of the assay design to monitor GPCR induced G protein activation. B-I) Representative traces evaluating G protein activation in BRET-based assay. The assay measures generation of the BRET signal between Gβγ and its reporter masGRK3CT-NLuc co-transfected into HEK293 cells with indicated Gα. The reaction is initiated by the addition of glycine (0.1 mM, square symbols) or taurine (0.1 mM triangle symbols) to GPR158 expressing cells. Control reactions conducted in parallel utilized canonical receptors and their ligands at 0.1 mM. The arrow indicates the injection time point of the ligand.
The inventors further tested whether glycine or taurine could induce GPR158 to activate G proteins as canonical GPCRs do. In these experiments, the inventors used a reverse strategy where the inventors monitored generation of the BRET signal in the same assay (FIG. 5A).
Measurements of BRET between Venus-Gβ1γ2 and masGRK3ct-Nluc were performed to monitor the release of free Gβγ dimers after activation of heterotrimers containing Gα subunits in living cells (described in detail in Masuho et al., 2015 (40)). […] An empty vector pcDNA3.1(±) was used in order to normalize the quantity of transfected DNA. […]

Structure (SMILES) | G protein activation via GPR158
NCC(=O)O [glycine] | no significant signal generation
NCCS(=O)(=O)O [taurine, 2-aminoethanesulfonic acid] | no significant signal generation
